# Data taken from US12685735B2 (Foghorn Therapeutics Inc., priority 2020, dated 2026).
# Legend:
# BRM = BRM (Homo sapiens, UniProt P51531); assay: ATPase catalytic activity assay of BRM (ADP-Glo); format: biochemical; conditions: for IC50: read-out: BRM IC50 (μM)*
# Outline: (§1)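 Luminescent ADP-Glo readout of ADP generated by ATP hydrolysis. Post-reaction: ATP depletion reagent, RT 40 min; detection reagent converting ADP→ATP, RT 60 min; luminescence read.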
# BRG-1 = BRG-1 (Homo sapiens, UniProt P51532); assay: ATPase catalytic activity assay of BRG-1 (ADP-Glo); format: biochemical; conditions: ATPase catalytic activity, ADP-Glo; for IC50: read-out: BRG1 IC50 (μM)*; for Emax: read-out: BRG1 Max % Inhibition
# Outline: as §1
# Chain of BRM (P51531 whole entry): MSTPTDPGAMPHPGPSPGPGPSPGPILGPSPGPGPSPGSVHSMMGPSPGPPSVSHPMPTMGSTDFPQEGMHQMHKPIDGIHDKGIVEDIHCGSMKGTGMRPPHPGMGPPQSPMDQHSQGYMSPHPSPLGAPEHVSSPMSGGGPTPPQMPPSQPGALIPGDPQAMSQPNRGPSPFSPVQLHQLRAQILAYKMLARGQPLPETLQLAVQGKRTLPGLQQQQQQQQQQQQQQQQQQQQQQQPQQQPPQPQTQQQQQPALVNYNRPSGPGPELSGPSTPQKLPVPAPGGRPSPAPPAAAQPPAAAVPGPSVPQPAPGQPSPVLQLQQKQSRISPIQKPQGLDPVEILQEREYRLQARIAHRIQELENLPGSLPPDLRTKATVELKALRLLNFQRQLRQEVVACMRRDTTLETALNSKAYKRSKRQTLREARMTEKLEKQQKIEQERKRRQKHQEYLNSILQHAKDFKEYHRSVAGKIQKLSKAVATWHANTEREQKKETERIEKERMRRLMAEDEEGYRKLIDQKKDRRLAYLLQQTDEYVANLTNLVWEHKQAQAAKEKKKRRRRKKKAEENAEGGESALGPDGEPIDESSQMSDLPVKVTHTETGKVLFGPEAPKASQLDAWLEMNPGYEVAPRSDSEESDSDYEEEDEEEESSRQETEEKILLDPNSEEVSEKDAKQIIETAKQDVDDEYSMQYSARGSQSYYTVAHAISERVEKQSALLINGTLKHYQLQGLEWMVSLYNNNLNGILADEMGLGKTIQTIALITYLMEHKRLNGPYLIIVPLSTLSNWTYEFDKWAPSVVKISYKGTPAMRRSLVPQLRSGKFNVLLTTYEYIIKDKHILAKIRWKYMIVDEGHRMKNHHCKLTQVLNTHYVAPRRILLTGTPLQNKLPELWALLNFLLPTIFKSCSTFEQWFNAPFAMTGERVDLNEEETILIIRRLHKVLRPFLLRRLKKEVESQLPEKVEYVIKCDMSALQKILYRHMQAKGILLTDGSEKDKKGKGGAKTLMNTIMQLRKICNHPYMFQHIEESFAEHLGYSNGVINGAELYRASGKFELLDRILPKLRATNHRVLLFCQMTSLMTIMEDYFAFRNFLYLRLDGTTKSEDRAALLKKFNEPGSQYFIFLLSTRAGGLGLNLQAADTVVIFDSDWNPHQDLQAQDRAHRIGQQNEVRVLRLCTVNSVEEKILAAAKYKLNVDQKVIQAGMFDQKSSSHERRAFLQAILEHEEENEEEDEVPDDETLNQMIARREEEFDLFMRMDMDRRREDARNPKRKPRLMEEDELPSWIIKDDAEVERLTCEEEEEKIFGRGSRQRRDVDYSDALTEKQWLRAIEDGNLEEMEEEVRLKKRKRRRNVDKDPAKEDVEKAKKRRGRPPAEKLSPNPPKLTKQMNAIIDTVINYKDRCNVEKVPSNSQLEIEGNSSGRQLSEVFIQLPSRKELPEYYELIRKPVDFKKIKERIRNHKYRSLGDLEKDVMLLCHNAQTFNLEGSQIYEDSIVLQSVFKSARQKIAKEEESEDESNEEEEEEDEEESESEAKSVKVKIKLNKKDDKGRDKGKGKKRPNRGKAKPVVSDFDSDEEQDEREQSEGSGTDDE
# Chain of BRG-1 (P51532 whole entry): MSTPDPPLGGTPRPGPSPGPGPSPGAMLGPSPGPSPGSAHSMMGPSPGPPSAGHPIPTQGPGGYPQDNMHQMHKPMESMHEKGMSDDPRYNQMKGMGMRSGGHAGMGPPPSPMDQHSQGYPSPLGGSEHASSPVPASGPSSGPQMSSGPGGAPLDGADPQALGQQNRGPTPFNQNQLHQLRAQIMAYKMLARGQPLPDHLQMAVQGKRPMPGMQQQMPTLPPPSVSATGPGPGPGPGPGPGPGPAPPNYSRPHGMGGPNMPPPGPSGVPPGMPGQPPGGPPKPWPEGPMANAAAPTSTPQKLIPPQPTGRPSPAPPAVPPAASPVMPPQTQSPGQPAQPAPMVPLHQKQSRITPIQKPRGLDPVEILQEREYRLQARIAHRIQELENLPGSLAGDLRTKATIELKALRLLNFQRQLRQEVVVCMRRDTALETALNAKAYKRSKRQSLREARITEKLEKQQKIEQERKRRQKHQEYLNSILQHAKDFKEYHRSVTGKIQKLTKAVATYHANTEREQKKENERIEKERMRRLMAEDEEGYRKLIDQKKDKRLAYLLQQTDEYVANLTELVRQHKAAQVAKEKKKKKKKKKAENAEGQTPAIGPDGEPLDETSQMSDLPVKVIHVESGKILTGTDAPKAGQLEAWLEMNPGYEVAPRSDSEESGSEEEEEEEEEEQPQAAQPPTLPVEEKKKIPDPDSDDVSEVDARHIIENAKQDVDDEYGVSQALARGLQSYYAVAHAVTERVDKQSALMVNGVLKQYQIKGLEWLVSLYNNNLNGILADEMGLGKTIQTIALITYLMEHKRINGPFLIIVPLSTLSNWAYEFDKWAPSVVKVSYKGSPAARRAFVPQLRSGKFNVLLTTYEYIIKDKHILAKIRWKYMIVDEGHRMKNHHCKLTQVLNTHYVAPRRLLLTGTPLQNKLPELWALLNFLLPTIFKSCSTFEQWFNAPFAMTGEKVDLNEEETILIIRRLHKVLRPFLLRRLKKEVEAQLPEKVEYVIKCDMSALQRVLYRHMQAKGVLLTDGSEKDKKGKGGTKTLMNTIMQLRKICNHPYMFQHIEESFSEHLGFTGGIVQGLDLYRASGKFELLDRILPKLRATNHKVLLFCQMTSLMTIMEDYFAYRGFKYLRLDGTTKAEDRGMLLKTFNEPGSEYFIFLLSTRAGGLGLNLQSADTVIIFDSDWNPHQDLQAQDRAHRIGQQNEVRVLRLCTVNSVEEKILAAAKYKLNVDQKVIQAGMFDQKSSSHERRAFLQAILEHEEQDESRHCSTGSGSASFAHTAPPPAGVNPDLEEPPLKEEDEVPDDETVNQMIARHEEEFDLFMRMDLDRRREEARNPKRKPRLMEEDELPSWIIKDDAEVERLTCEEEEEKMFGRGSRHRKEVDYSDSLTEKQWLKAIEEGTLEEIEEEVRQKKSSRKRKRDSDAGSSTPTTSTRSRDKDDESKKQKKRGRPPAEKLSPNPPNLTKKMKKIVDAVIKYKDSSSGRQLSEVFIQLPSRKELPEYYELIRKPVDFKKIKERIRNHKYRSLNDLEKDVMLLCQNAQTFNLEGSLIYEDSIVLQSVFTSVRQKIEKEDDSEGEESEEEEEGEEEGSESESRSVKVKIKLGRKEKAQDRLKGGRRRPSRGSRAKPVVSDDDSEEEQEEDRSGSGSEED
BRM Max % Inhibition (BRM) [%],IC50 (BRM) [µM],IC50 (BRG-1) [µM],Emax (BRG-1) [%],Compound
>80,0.1 to 1,> 5,> 50,"Cn1ncc2ccc(-c3csc(NC(=O)CNC(=O)c4ccc5c(c4)[C@](C)(CO)CC5)n3)cc21 [Compound 179, (R)-3-(hydroxymethyl)-3-methyl-N-(2-((4-(1-methyl-1H-indazol-6-yl)thiazol-2-yl)amino)-2-oxoethyl)-2,3-dihydro-1H-indene-5-carboxamide]"
>90,0.1 to 1,1 to 5,> 60,"CN1C(=O)CCc2ccc(-c3csc(NC(=O)CNC(=O)c4ccc5c(c4)[C@](C)(CO)CC5)n3)cc21 [Compound 180, (R)-3-(hydroxymethyl)-3-methyl-N-(2-((4-(1-methyl-2-oxo-1,2,3,4-tetrahydroquinolin-7-yl)thiazol-2-yl)amino)-2-oxoethyl)-2,3-dihydro-1H-indene-5-carboxamide]"
>90,0.1 to 1,1 to 5,> 70,"Cn1ccc2ccc(-c3csc(NC(=O)CNC(=O)c4ccc5c(c4)[C@@](C)(CO)CC5)n3)cc2c1=O [Compound 181, (S)-3-(hydroxymethyl)-3-methyl-N-(2-((4-(2-methyl-1-oxo-1,2-dihydroisoquinolin-7-yl)thiazol-2-yl)amino)-2-oxoethyl)-2,3-dihydro-1H-indene-5-carboxamide]"
>95,< 0.1,0.1 to 1,> 90,"C[C@@H]1CN(c2cccc(-c3csc(NC(=O)CNC(=O)c4cccc(C5(CO)CC5)c4)n3)n2)C[C@H](C)O1 [Compound 182, N-[2-[[4-[6-[(cis)-2,6-dimethylmorpholin-4-yl]-2-pyridyl]thiazol-2-yl]amino]-2-oxo-ethyl]-3-[1-(hydroxymethyl)cyclopropyl]benzamide]"
>90,0.1 to 1,1 to 5,> 70,"C[C@@H]1CN(c2cccc(-c3csc(NC(=O)CNC(=O)c4cccc(C5(F)COC5)c4)n3)c2)C[C@H](C)O1 [Compound 183, N-(2-((4-(3-((cis)-2,6-dimethylmorpholino)phenyl)thiazol-2-yl)amino)-2-oxoethyl)-3-(3-fluorooxetan-3-yl)benzamide]"
>90,0.1 to 1,1 to 5,> 80,"C[C@@H]1CN(c2cccc(-c3csc(NC(=O)CNC(=O)c4cccc(C5(O)COC5)c4)n3)c2)C[C@H](C)O1 [Compound 184, N-(2-((4-(3-((2R,6S)-2,6-dimethylmorpholino)phenyl)thiazol-2-yl)amino)-2-oxoethyl)-3-(3-hydroxyoxetan-3-yl)benzamide]"
>95,0.1 to 1,1 to 5,> 80,"Cn1ncc(-c2cccc(-c3csc(NC(=O)CNC(=O)c4cccc(C(C)(C)CO)c4)n3)c2)n1 [Compound 185, 3-(1-hydroxy-2-methylpropan-2-yl)-N-(2-((4-(3-(2-methyl-2H-1,2,3-triazol-4-yl)phenyl)thiazol-2-yl)amino)-2-oxoethyl)benzamide]"
>95,< 0.1,1 to 5,> 70,"C[C@@H]1CN(c2cccc(-c3csc(NC(=O)CNC(=O)c4ccc5c(c4)[C@@]4(CCC[C@@H]4O)CC5)n3)c2)C[C@H](C)O1 [Compound 186, (1R,2S)-N-(2-((4-(3-((cis)-2,6-dimethylmorpholino)phenyl)thiazol-2-yl)amino)-2-oxoethyl)-2-hydroxy-2′,3′-dihydrospiro[cyclopentane-1,1′-indene]-6′-carboxamide]"
>95,< 0.1,0.1 to 1,> 70,"C[C@@H]1CN(c2cccc(-c3csc(NC(=O)CNC(=O)c4cccc(C5(C)COC5)c4)n3)n2)C[C@H](C)O1 [Compound 187, N-[2-[[4-[6-[(cis)-2,6-dimethylmorpholin-4-yl]-2-pyridyl]thiazol-2-yl]amino]-2-oxo-ethyl]-3-(3-methyloxetan-3-yl)benzamide]"
